According to patent US20250243210A1, “CRBN E3 LIGASE LIGAND COMPOUND, PROTEIN DEGRADER DEVELOPED BASED THEREON AND THEIR APPLICATIONS” (GLUETACS THERAPEUTICS (SHANGHAI) CO., LTD., priority 2021, published 2025):
pIC50: −log10 of the molar value. Read-outs that look alike come from different tables or passages of the source.

Experiments:
[1] = test system: A549; assay: CCK-8 tumor cell proliferation, A549; type: cell-based, Human; conditions: A549, 96 h, read-out: IC50 for inhibiting the proliferation of tumor cells, A549
Protocol: (§1) Determination of half inhibitory concentration (IC50) of the compounds against tumor cells:
(§2) The tumor cells used herein were cultured in a cell culture medium listed in table 6 at 37° C. in an incubator with 5% CO2. Prior to experimentation, all cells used were correctly identified by STR profiling, and tested negative for mycoplasma through routine screenings.
(§3) IC50 values of the compounds of the present disclosure (including the compounds in Table 4 and compounds of examples 1-72) were measured using the Meilun Cell Counting Kit-S kit from Dalian Meilun Biotech Co., Ltd. Assay details are as follows: tumor cells were seeded in a 96-well plate at a density listed in Table 7. After 24 h, 100 μL of the inoculated cells were treated with 0.5 μL of the compounds of the present disclosure (including the compounds in Table 4 and compounds of examples 1-72) at 10 different successively decreasing concentrations (starting at the highest concentration of 10 μM; 5-fold serial dilutions). After the cells were treated with the compounds of the present disclosure for a period of time (the treatment times listed in Table 7), the cell viability detection reagent was added to the culture medium for cell viability assessment according to the instructions provided with the CCK-8 kit. […] The growth inhibition of the compounds of the present disclosure on cells was plotted by Prism Graphpad software, and the IC50 values of the compounds of the present disclosure were calculated therefrom.

[2] = test system: WSU-DLCL2; assay: CCK-8 tumor cell proliferation, WSU-DLCL2; type: cell-based, Human; conditions: read-out: IC50 for inhibiting the proliferation of tumor cells, WSU-DLCL2
Protocol: as §1
(§4) The tumor cells used herein were cultured in a cell culture medium listed in table 6 at 37° C. in an incubator with 5% CO2.
(§5) After the cells were treated with the compounds of the present disclosure for a period of time (the treatment times listed in Table 7), the cell viability detection reagent was added to the culture medium for cell viability assessment according to the instructions provided with the CCK-8 kit. […] The growth inhibition of the compounds of the present disclosure on cells was plotted by Prism Graphpad software, and the IC50 values of the compounds of the present disclosure were calculated therefrom.

[3] = test system: PC-3; assay: CCK-8 tumor cell proliferation, PC-3; type: cell-based, Human; conditions: PC-3, 96 h, read-out: IC50 for inhibiting the proliferation of tumor cells, PC-3
Protocol: as §1, §4, §5

[4] = test system: MM.1R; assay: CCK-8 tumor cell proliferation, MM.1R; type: cell-based; conditions: 72 h, read-out: IC50 for inhibiting the proliferation of tumor cells, MM.1R
Protocol: as §1, §4, §5

[5] = test system: DU-145; assay: CCK-8 tumor cell proliferation, DU-145; type: cell-based, Human; conditions: DU-145, 96 h, read-out: IC50 for inhibiting the proliferation of tumor cells, DU-145
Protocol: as §1, §4, §5

[6] = test system: Hep3B2.1-7; assay: CCK-8 tumor cell proliferation, Hep3B2.1-7; type: cell-based, Human; conditions: Hep3B2.1-7, 96 h, read-out: IC50 for inhibiting the proliferation of tumor cells, Hep3B2.1-7
Protocol: as §1, §2, §3

[7] = test system: SW620; assay: CCK-8 tumor cell proliferation, SW620; type: cell-based, Human; conditions: SW620, 96 h, read-out: IC50 for inhibiting the proliferation of tumor cells, SW620
Protocol: as §1, §4, §5

[8] = test system: MGC80-3; assay: CCK-8 tumor cell proliferation, MGC80-3; type: cell-based, Human; conditions: read-out: IC50 for inhibiting the proliferation of tumor cells, MGC80-3
Protocol: as §1, §2, §3

[9] = test system: LNcap; assay: CCK-8 tumor cell proliferation, LNcap; type: cell-based, Human; conditions: 96 h, read-out: IC50 for inhibiting the proliferation of tumor cells, LNcap
Protocol: as §1, §2, §3

[10] = test system: SU-DHL-6; assay: CCK-8 tumor cell proliferation, SU-DHL-6; type: cell-based; conditions: Homo sapiens, SU-DHL-6, 72 h, read-out: IC50 for inhibiting the proliferation of tumor cells, SU-DHL-6
Protocol: as §1, §4, §5

[11] = test system: Kasumi-1; assay: CCK-8 tumor cell proliferation, Kasumi-1; type: cell-based; conditions: Homo sapiens, Kasumi-1, 72 h, read-out: IC50 for inhibiting the proliferation of tumor cells, Kasumi-1
Protocol: as §1, §4, §5

[12] = Homo sapiens, MGC-803, MGC80-3, 96 h
[13] = Homo sapiens, WSUDLCL2, WSU-DLCL2, 96 h

Compound `N#Cc1ccc(OC2CCC(NC(=O)c3ccc(N4CCC(CN5CC6CCC(C5)N6c5cc6c(cc5F)C(=O)N(C5CCC(=O)NC5=O)C6=O)CC4)nn3)CC2)cc1Cl` (stereo not drawn) [GT-02765, N-((1r,4r)-4-(3-chloro-4-cyanophenoxy)cyclohexyl)-6-(4-((8-(2-(2,6-dioxopiperidin-3-yl)-6-fluoro-1,3-dioxoisoindolin-5-yl)-3,8-diazabicyclo[3.2.1]octan-3-yl)methyl)piperidin-1-yl)pyridazine-3-carboxamide] has a pIC50 [1] of at least 7.30, a pIC50 ([2]; WSU-DLCL2, 96 h) of at least 7.30 and a pIC50 [3] of at least 7.30. For the same compound, the pIC50 [4] was 6.30 to 7.00, the pIC50 [5] was 7.00 to 7.30 and the pIC50 [6] was at least 7.30. It also gave a pIC50 ([7]; CCK-8, Table 8 (AR-based)) of at least 7.30, a pIC50 ([8]; MGC80-3, 96 h) of at least 7.30 and a pIC50 [9] of at least 7.30.

With `N#Cc1ccc(OC2CCC(NC(=O)c3ccc(N4CCC(CN5CCN(c6cc7c(cc6F)C(=O)N(C6CCC(=O)NC6=O)C7=O)CC5)CC4)nn3)CC2)cc1Cl` (stereo not drawn) [GT-03016, N-((1r,4r)-4-(3-chloro-4-cyanophenoxy)cyclohexyl)-6-(4-((4-(2-(2,6-dioxopiperidin-3-yl)-6-fluoro-1,3-dioxoisoindolin-5-yl)piperazin-1-yl-2,2,3,3,5,5,6,6-d8)methyl)piperidin-1-yl)pyridazine-3-carboxamide] the pIC50 ([2]; WSU-DLCL2, 96 h) was 5.30 to 6.00, the pIC50 [3] was 6.00 to 6.30 and the pIC50 [4] was 5.30 to 6.00. For the same compound, the pIC50 [5] was 6.00 to 6.30, the pIC50 ([7]; CCK-8, Table 8 (AR-based)) was 7.00 to 7.30 and the pIC50 ([8]; MGC80-3, 96 h) was 6.30 to 7.00. The pIC50 [9] was 6.00 to 6.30.

For `CC1(C)[C@H](NC(=O)c2ccc(N3CCC(CN4CC5CCC(C4)N5c4cc5c(cc4F)C(=O)N(C4CCC(=O)NC4=O)C5=O)CC3)nn2)C(C)(C)[C@H]1Oc1ccc(C#N)c(Cl)c1` (stereo partly drawn) [GT-03398, N-((1r,3r)-3-(3-chloro-4-cyanophenoxy)-2,2,4,4-tetramethylcyclobutyl)-6-(4-((8-(2-(2,6-dioxopiperidin-3-yl)-6-fluoro-1,3-dioxoisoindolin-5-yl)-3,8-diazabicyclo[3.2.1]octan-3-yl)methyl)piperidin-1-yl)pyridazine-3-carboxamide], the pIC50 ([1]; Homo sapiens) was 7.00 to 7.30, the pIC50 ([3]; Homo sapiens) was at least 7.30 and the pIC50 ([5]; Homo sapiens) was 7.00 to 7.30. The pIC50 [8, 12] was at least 7.30 and the pIC50 ([9]; Homo sapiens) was 7.00 to 7.30.

Work on `CC1(C)[C@H](NC(=O)c2ccc(N3CCC(CN4CC5CCC(C4)N5c4cc5c(cc4F)C(=O)N(C4CCC(=O)NC4=O)C5=O)CC3)nc2)C(C)(C)[C@H]1Oc1ccc(C#N)c(Cl)c1` (stereo partly drawn) [GT-03402, N-((1r,3r)-3-(3-chloro-4-cyanophenoxy)-2,2,4,4-tetramethylcyclobutyl)-6-(4-((8-(2-(2,6-dioxopiperidin-3-yl)-6-fluoro-1,3-dioxoisoindolin-5-yl)-3,8-diazabicyclo[3.2.1]octan-3-yl)methyl)piperidin-1-yl)nicotinamide] yielded a pIC50 ([1]; Homo sapiens) of 6.30 to 7.00, a pIC50 [2, 13] of 6.30 to 7.00 and a pIC50 ([3]; Homo sapiens) of 7.00 to 7.30. It also gave a pIC50 ([5]; Homo sapiens) of 7.00 to 7.30 and a pIC50 ([9]; Homo sapiens) of 7.00 to 7.30.

`CC1(C)[C@H](NC(=O)c2ccc(N3CCC(CN4CC5CCC4CN5c4ccc5c(c4)C(=O)N(C4CCC(=O)NC4=O)C5=O)CC3)nc2)C(C)(C)[C@H]1Oc1ccc(C#N)c(Cl)c1` (stereo partly drawn) [GT-03481, N-((1r,3r)-3-(3-chloro-4-cyanophenoxy)-2,2,4,4-tetramethylcyclobutyl)-6-(4-((5-(2-(2,6-dioxopiperidin-3-yl)-1,3-dioxoisoindolin-5-yl)-2,5-diazabicyclo[2.2.2]octan-2-yl)methyl)piperidin-1-yl)nicotinamide] was tested, and the pIC50 ([1]; Homo sapiens) was 6.30 to 7.00, the pIC50 [2, 13] was 6.30 to 7.00 and the pIC50 ([6]; Homo sapiens) was at least 7.30. The pIC50 [8, 12] was 6.30 to 7.00 and the pIC50 ([9]; Homo sapiens) was 6.30 to 7.00.

`N#Cc1ccc(OC2CCC(NC(=O)c3ccc(N4CCC(CN5CC6CCC(C5)N6c5ccc6c(c5)C(=O)N(C5CCC(=O)NC5=O)C6=O)CC4)nn3)CC2)cc1Cl` (stereo not drawn) [GT-03488, N-((1r,4r)-4-(3-chloro-4-cyanophenoxy)cyclohexyl)-6-(4-((8-(2-(2,6-dioxopiperidin-3-yl)-1,3-dioxoisoindolin-5-yl)-3,8-diazabicyclo[3.2.1]octan-3-yl)methyl)piperidin-1-yl)pyridazine-3-carboxamide] showed a pIC50 [1] of 7.00 to 7.30, a pIC50 [4] of at least 7.30 and a pIC50 [5] of 7.00 to 7.30. The pIC50 [6] was at least 7.30, the pIC50 ([8]; MGC80-3, 96 h) was at least 7.30 and the pIC50 [9] was at least 7.30.

With `CC1(C)[C@H](NC(=O)c2ccc(N3CCC(CN4CC5CCC4CN5c4cc5c(cc4F)C(=O)N(C4CCC(=O)NC4=O)C5=O)CC3)nc2)C(C)(C)[C@H]1Oc1ccc(C#N)c(Cl)c1` (stereo partly drawn) [GT-03494, N-((1r,3r)-3-(3-chloro-4-cyanophenoxy)-2,2,4,4-tetramethylcyclobutyl)-6-(4-((5-(2-(2,6-dioxopiperidin-3-yl)-6-fluoro-1,3-dioxoisoindolin-5-yl)-2,5-diazabicyclo[2.2.2]octan-2-yl)methyl)piperidin-1-yl)nicotinamide] the pIC50 ([1]; Homo sapiens) was 6.30 to 7.00, the pIC50 [2, 13] was 7.00 to 7.30 and the pIC50 ([5]; Homo sapiens) was 5.30 to 6.00. For the same compound, the pIC50 ([6]; Homo sapiens) was 7.00 to 7.30, the pIC50 [8, 12] was 7.00 to 7.30 and the pIC50 ([9]; Homo sapiens) was 7.00 to 7.30.

`Cc1nc(Nc2ncc(C(=O)Nc3c(C)cccc3Cl)s2)cc(N2CCC(CN3CC4CC(C3)N4c3ccc4c(c3)C(=O)N(C3CCC(=O)NC3=O)C4=O)CC2)n1` (stereo not drawn) [GT-03630, N-(2-chloro-6-methylphenyl)-2-((6-(4-((6-(2-(2,6-dioxopiperidin-3-yl)-1,3-dioxoisoindolin-5-yl)-3,6-diazabicyclo[3.1.1]heptan-3-yl)methyl)piperidin-1-yl)-2-methylpyrimidin-4-yl)amino)thiazole-5-carboxamide] was tested, and the pIC50 [10] was 6.30 to 7.00 and the pIC50 [11] was at least 7.30.

Work on `CN(C)C(=O)c1cc2cnc(Nc3ccc(N4CCC(CN5CC6CCC(C5)N6c5ccc6c(c5)C(=O)N(C5CCC(=O)NC5=O)C6=O)CC4)cn3)nc2n1C1CCCC1` (stereo not drawn) [GT-03651, 7-cyclopentyl-2-((5-(4-((8-(2-(2,6-dioxopiperidin-3-yl)-1,3-dioxoisoindolin-5-yl)-3,8-diazabicyclo[3.2.1]octan-3-yl)methyl)piperidin-1-yl)pyridin-2-yl)amino)-N,N-dimethyl-7H-pyrrolo[2,3-d]pyrimidine-6-carboxamide] yielded a pIC50 ([7]; Homo sapiens, SW-620, CCK-8, Table 9 (CDK4/6-based)) of 6.30 to 7.00.

In the case of `N#Cc1ccc(OC2CCC(NC(=O)c3ccc(N4CCC(CN5CC6CCC5CN6c5cc6c(cc5F)C(=O)N(C5CCC(=O)NC5=O)C6=O)CC4)nn3)CC2)cc1Cl` (stereo not drawn) [GT-03773, N-((1r,4r)-4-(3-chloro-4-cyanophenoxy)cyclohexyl)-6-(4-((5-(2-(2,6-dioxopiperidin-3-yl)-6-fluoro-1,3-dioxoisoindolin-5-yl)-2,5-diazabicyclo[2.2.2]octan-2-yl)methyl)piperidin-1-yl)pyridazine-3-carboxamide], the pIC50 ([7]; CCK-8, Table 8 (AR-based)) was 6.30 to 7.00.

`CN(C)C(=O)c1cc2cnc(Nc3ccc(N4CCNCC4)cn3)nc2n1C1CCCC1` [Ribociclib, reference compound] was tested, and the pIC50 ([7]; Homo sapiens, SW-620, CCK-8, Table 9, numeric value) was under 5.00.
